Square brackets hold non-standard residues; d marks the D form. Ends that are not written are not given here. Oic = O=C(O)[C@@H]1C[C@@H]2CCCC[C@@H]2N1; Tic = O=C(O)[C@@H]1Cc2ccccc2CN1
Key:
[1] = molecular target: T1, mouse GzmA (mGzmA) (Mus musculus, UniProt P11032); test: In-gel fluorescence labeling of mGzmA; assay type: biochemical; details: mGzmA 1 μM, 24 h, 37 °C; for Labeling of mGzmA (in-gel Cy5 fluorescence): probe 200 nM or 1 μM
T1 construct: CSB-EP010081MO for active, mature form; purchased Cusabio CSB-EP010081MO
T1 sequence (P11032 29-260): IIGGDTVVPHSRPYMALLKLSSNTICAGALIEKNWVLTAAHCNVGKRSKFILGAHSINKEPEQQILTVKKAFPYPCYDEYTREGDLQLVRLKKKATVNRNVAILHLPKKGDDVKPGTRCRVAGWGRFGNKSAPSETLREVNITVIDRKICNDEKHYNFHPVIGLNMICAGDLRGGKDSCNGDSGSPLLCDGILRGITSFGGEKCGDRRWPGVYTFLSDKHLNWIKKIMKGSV
Procedure: Figure 3 GzmA ABPs covalently and competitively label active human and mouse GzmA. […] Recombinant hGzmA (100 nM) was incubated with varying concentrations of each ABP at 37 °C. B) Competitive labeling of hGzmA. Recombinant hGzmA (100 nM) was preincubated with covalent inhibitors 1 or 2 (5 μM) for 2 h, followed by labeling with ABPs 3 –5 (50 nM) for 2 h at 37 °C. Note: Pro‐form of hGzmA (the first lane) is not effectively stained by SYPRO‐Ruby. C) Structure of qABP 6. D) Quenched natures of 5 and 6. […] F) Labeling of mGzmA (1 μM) with 5 and 6 (1 μM, 24 h, 37 °C). Protein samples were analyzed by SDS‐PAGE and in‐gel fluorescence scanning for Cy5 signal and SYPRO Ruby staining.
Sulfo-Cy5 N N P O 1 µM 100 nM
7 HN NH2 In-gel fluorescence: […]
mGzmA In-gel fluorescence: mGzmA In-gel fluorescence:
Supplementary Figure 1. (A) Chemical structure of qABP 7. (B) Labeling of mGzmA (1 µM, 24 h, 37 °C) and hGzmA (100 nM, 2 h, 37 °C) by 1 µM or 100 nM of 5, 6, and 7, respectively. (C) Labeling of mGzmA (1 µM, 24 h, 37 °C) by 200 nM of 5, 6, and 7. […] Protein samples were analyzed by SDS-PAGE and in-gel fluorescence scanning for Cy5 signal. […]
Briefly, hGzmA (50 nM) was incubated with either inhibitor 1 or 2 (200 nM), and GzmA fluorogenic substrate […] (100 µM) in 50 mM Tris, 150 mM NaCl, 0.01% Triton X-100 (pH 8) for 15 hr at 37 °C. Recorded fluorescence at Ex/Em: 380/460 nm for residual GzmA […]
Cat. No. CRL-2570) and 4T1 (ATCC Cat. No. CRL-2539) cells were cultured in RPMI supplemented with 10% fetal bovine serum (FBS), 1% penicillin/streptomycin (PS), and 2 mM L-glutamine, while HEK293T and MDA-MB-231 cells (ATCC Cat. No. HTB-26) were cultured in DMEM supplemented likewise as described above. […] The supernatant was collected, and protein concentration was measured using a Pierce BCA protein assay. […]
C. In-gel fluorescence imaging […]
Conditions for probe/inhibitor treatment for in-gel fluorescence analysis: Inhibitors and probes were incubated with active (or pro-) GzmA followed by treatment with 4X SDS reducing sample buffer. […]

[2] = molecular target: T2, proteinase 3 (PR3) (Homo sapiens, UniProt P24158); test: Cross-reactivity labeling, proteinase 3; assay type: biochemical; details: protease 100 nM, probe 100 nM, 2 h, 37 °C, in-gel fluorescence
T2 sequence (P24158 28-256): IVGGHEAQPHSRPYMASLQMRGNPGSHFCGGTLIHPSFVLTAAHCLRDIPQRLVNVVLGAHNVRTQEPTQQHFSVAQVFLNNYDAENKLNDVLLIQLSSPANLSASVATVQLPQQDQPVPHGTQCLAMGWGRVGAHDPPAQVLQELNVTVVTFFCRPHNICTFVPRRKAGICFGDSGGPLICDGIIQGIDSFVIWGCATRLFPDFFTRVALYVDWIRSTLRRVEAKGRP
Procedure: Protease (100 nM) HNE PR3 GzmK GzmA
Protease (100 nM) GzmA GzmK
Supplementary Figure 2. Cross-reactivity of probes. (A) Labeling of GzmA, GzmK, PR3, and HNE
(100 nM, 2 h, 37 °C) by 100 nM of 5 and 6. (B) Labeling of GzmA and GzmK (100 nM, 2 h, 37 °C) by
100 nM of 3 – 6. (C) Concentration-dependent labeling of GzmA and GzmK (100 nM, 2 h, 37 °C) by 5 and
6. Protein samples were analyzed by SDS-PAGE and in-gel fluorescence scanning for Cy5 signal.
Protein loading was confirmed by SYPRO Ruby staining. […]

| Substance | Labeling of mGzmA (in-gel Cy5 fluorescence) [1] | Concentration dependence of labeling of mGzmA ([1]; probe 1, 0.5, 0.2 µM, in-gel fluorescence) | Labeling of PR3 (cross-reactivity) [2] |
| --- | --- | --- | --- |
| [Tic]G[Oic]R [compound 6] | efficiently (and slightly more strongly than 5) labeled | concentration‐dependent labeling of mGzmA | Neither probe 5 nor 6 showed detectable labeling |
| GFFR [compound 7] | lower labeling efficiency for both hGzmA and mGzmA compared with probes 5 and 6 |  |  |
| IGNR [compound 5] |  |  | Neither probe 5 nor 6 showed detectable labeling |
